The source of these data is article PMC10303059, “Chloroquine and Hydroxychloroquine, as Proteasome Inhibitors, Upregulate the Expression and Activity of Organic Anion Transporter 3” (Pharmaceutics, 2023).

The subject of the assay is T1, 20S proteasome.
T1 construct: gene PSMB5; endogenous proteasome of COS-7 cells expressing OAT3; with Proteasome subunit beta type-6; Proteasome subunit beta type-7; Proteasome subunit beta type-1; Proteasome subunit beta type-2; Proteasome subunit beta type-3; Proteasome subunit beta type-4; Proteasome subunit alpha type-1; Proteasome subunit alpha type-2; Proteasome subunit alpha type-3; Proteasome subunit alpha type-4; Proteasome subunit alpha type-5; Proteasome subunit alpha type-6; Proteasome subunit alpha type-7
Briefly: […] proteasome assay kit (fluorescence) after treatment of intact cells. It counts as cell-based. The settings on record: OAT3-expressing COS-7 cells treated 4 h; range over 10-100 µM; direct binding not shown.

For `CCN(CCO)CCCC(C)Nc1ccnc2cc(Cl)ccc12` (stereo not shown) [Hydroxychloroquine], the “% inhibition at 10-100 μM” value was 23–61%.
